pIC50: −log10 of the molar value.
Tested on: coculture of keratinocytes and of melanocytes
Assay: depigmenting activity test: inhibition of melanogenesis on a coculture of keratinocytes and of melanocytes
Type: cell-based
Details: for Category (maximum depigmenting activity): inhibition of melanogenesis with respect to the control; for pIC50: coculture of keratinocytes and melanocytes, read-out: IC50 (concentration at which 50% inhibition of melanogenesis is observed)
Procedure: This test corresponds to that described in Patent FR 2,734,825, filed by the Applicant Company, and in the article by R. Schmidt, P. Krien and M. Régnier, Anal. Biochem., 235(2), 113-18 (1996). This test is thus carried out on a coculture of keratinocytes and of melanocytes.
The IC50 value, which corresponds to the micromolar concentration (μM) at which 50% inhibition of melanogenesis is observed, is determined for each compound tested.
Furthermore, a category is given to each of these compounds for their maximum depigmenting activity:
category 1: 10 to 30% inhibition of melanogenesis with respect to the control (same experiment without compound to be tested);
category 2: 30 to 60% inhibition of melanogenesis with respect to the control (same experiment without compound to be tested);
category 3: 60 to 100% inhibition of melanogenesis with respect to the control (same experiment without compound to be tested).

CN(C)C=Nc1ccc(O)cc1 [N′-(4-hydroxyphenyl)-N,N-dimethylformamidine]
Category (maximum depigmenting activity) (at 50 μM): 2 at 50 μM (category 2: 30 to 60% inhibition of melanogenesis with respect to the control) | pIC50: 3.70

O=c1cc(CO)occ1O [Kojic acid]
Category (maximum depigmenting activity) (at 500 μM): 2 at 500 μM (category 2: 30 to 60% inhibition of melanogenesis with respect to the control) | pIC50: 3.30
